Laboratory results from patent publication US20260055375A1, “CULTURE METHOD” (Babraham Institute, priority 2023, published 2026).

Columns and labels:
[1] = system: endometrial stromal cells; assay: Morphometric analysis of stromal cells in hormone-stimulated endometrium assembloid; format: cell-based, human
Experimental: (§1) Hormone stimulation scheme aimed to recapitulate the mid-secretory phase of human endometrial cycle when receptive phenotype optimal for embryo implantation, known as window of implantation, is acquired. For this purpose, β-oestradiol (E2) stimulation was started in upper and lower compartments for 4 days to simulate the proliferative phase of human endometrial cycle. A total volume of 300 μL of organoid media supplemented by 2% charcoal stripped FBS (Sigma Aldrich, F6765) and 10 nM of β-oestradiol (E2, Sigma E4389) was added to the top compartment of the transwell culture system. A total volume of 1 mL of hEnSC medium supplemented by 2% charcoal stripped FBS (Sigma Aldrich, F6765) and 10 nM of β-oestradiol (E2, Sigma E4389) was added to the lower compartment. Media were changed each 2 days. After 4 days, upper and lower compartments were stimulated with full hormone mixture containing E2, progesterone (P4) and 8-bromoadenosine 3′,5′-cyclic monophosphate (CAMP) for 8 days. A total volume of 300 μL of organoid media supplemented by 2% charcoal stripped FBS (Sigma Aldrich, F6765), 10 nM of E2 (Sigma E4389), 1 μM of P4 (Sigma P7556) and 1 μM of cAMP (Sigma, B7880) was added to the top compartment of the transwell culture system. A total volume of 1 mL of hEnSC medium supplemented by 2% charcoal stripped FBS (Sigma Aldrich, F6765) and […] (Sigma E4389), 1 μM of P4 (Sigma P7556) and […] (Sigma, B7880) was added to the lower compartment. Media were changed each 2 days.
(§2) Morphometric analyses were performed on stromal and epithelial compartments on proliferative phase (after 4 days of E2 stimulation) and secretory phase (after 8 days of stimulation with E2, P4 and cAMP).
Cell segmentation and cell morphometric analyses were performed from confocal microscopy images of stromal and epithelial compartment. […]
Stromal length (μm) and width (μm) were acquired for each cell using the line tool from Fiji. […] In this case, only line measurements (in μm) corresponding to length and width of each stromal cell were recorded to calculate length/width ratio. […]

[2] = system: epithelial endometrial cells; assay: Morphometric analysis of surface epithelial cells in hormone-stimulated endometrium assembloid; format: cell-based, human
Experimental: as §1, §2
Cell segmentation and cell morphometric analyses were performed from confocal microscopy images of stromal and epithelial compartment. Vimentin and cytokeratin-7 were used as stromal and epithelial markers, respectively, to determine stromal and epithelial compartment. Phalloidin signal was used to perform cell segmentation of stromal and epithelial compartments. Cell segmentation was done in an intermediate field of the whole Z-stack, choosing a relatively flat area to maximize the accuracy of the segmentation using Fiji (https://imagej.net/software/fiji/).
Epithelial cells were segmented manually using polygon selection tool from Fiji. Cell contour was drawn with multiple points to accurately fit perimeter of each cell segmented. Fit spline option (“Edit”>“Selection”>“Fit spline”) was used in all cases to smooth cell contour and maximize the match of manual cell segmentation with cell perimeter. Each Region Of Interest (ROI) corresponding to each epithelial cell segmented was added to ROI manager (“Analyse”>“Tools” >“ROI manager”).
Once acquired all ROI, the following measurements were set (“Analyse”>“Set Measurements”): area (μm^2), perimeter (μm), and shape descriptors roundness, circularity, aspect ratio, and solidity. Roundness ((4·area)/(π·major axis^2)) ranges from 0 to 1 indicating elongated or circle-like shape. Circularity (4π·area/perimeter^2) ranges from 0 to 1 and correlates with shape roughness. Aspect ratio is defined as the ratio between major and minor axis of the best fit ellipse. Solidity, defined as a ratio between area and convex area, ranges from 0 to 1, describing a concave or convex shape.

[3] = stromal cells, proliferative (E2 4 days) vs secretory (E2, P4 and cAMP 8 days)

Question: What does the source list for `C[C@]12CC[C@@H]3c4ccc(O)cc4CC[C@H]3[C@@H]1CC[C@@H]2O` [E2, β-oestradiol]?
Answer: length/width ratio (median) ([1]; stromal cells in 3D, proliferative phase = E2 4 days, secretory phase = E2, P4 and cAMP 8 days): 9.14; cell length (median) [1, 3]: 105.4 μm; cell width (median) [1, 3]: 11.39 μm; surface area (median) ([2]; proliferative (E2 4 days) vs secretory (E2, P4 and cAMP 8 days)): 75.67 μm^2; aspect ratio (AR) (median) ([2]; proliferative vs secretory): 1.584; cell perimeters (median) ([2]; proliferative vs secretory): 34.61 μm; cell roundness (median) ([2]; proliferative vs secretory): 0.6315; circularity (median) ([2]; proliferative vs secretory): 0.7920; solidity (median) ([2]; proliferative vs secretory): 0.9820
